# Test results published in patent US5962487A, “Antipicornaviral compounds and methods for their use and preparation” (Agouron Pharmaceuticals, Inc., priority 1997, dated 1999).
# Assays:
# [1] = in vitro; assay type: cell-based; settings: human, hi-hela cells
# Procedure: (§1) HI-HeLa cells were infected with HRV-14 (unless otherwise noted) at a multiplicity of infection (m.o.i.) of 0.13 (virus particles/cell) or mock-infected with medium only. Infected or mock-infected cells were resuspended at 8×10^5 cells per mL and incubated with appropriate concentrations of compounds of formulas I and II. Two days later, XTT/PMS was added to test plates, and the amount of formazan produced was quantified spectrophotometrically at 450/650 nm. The EC50 was calculated as the concentration of compound that increased the percentage of formazan production in compound-treated, virus-infected cells to 50% of that produced by compound-free mock-infected cells. The 50% cytotoxic dose (CC50) was calculated as the concentration of compound that decreased the percentage of formazan produced in compound-treated, mock-infected cells to 50% of that produced in compound-free, mock-infected cells. The therapeutic index (TI) was calculated by dividing the CC50 by the EC50.
# (§2) All strains of human rhinovims (HRV) for use in this assay were purchased from American Type Culture Collection (ATCC), except for HRV serotype-14, which was produced from the infectious cDNA clone, constructed and supplied to us by Dr. Roland Rueckert at the Institute for Molecular Virology, University of Wisconsin, Madison, Wis. HRV stocks were propagated, and antiviral assays were performed in HI-HeLa (ATCC). Cells were grown in Minimal Essential Medium, available from Life Technologies, with 10% fetal bovine serum.
# [2] = target: T1, Rhinovirus 3C protease (RVP) serotype-14 (Human rhinovirus 14, UniProt P03303); test: Inhibition of Rhinovirus Protease, serotype 14 (FRET assay); assay type: biochemical; settings: for Ki: 10 minute preincubation with 50 nM RVP prior to addition of substrate, read-out: INHIB (Ki); for kinact/KI: read-out: kobs/I
# T1 construct: Recombinant Rhinovirus 3C proteases from serotypes 14, 16, 2 or 89 were prepared; made in house
# Procedure: Stock solutions (50 mM, in DMSO) of various compounds were prepared; dilutions were in the same solvent. Recombinant Rhinovirus 3C proteases from serotypes 14, 16, 2 or 89 were prepared by the following standard chromatographic procedures: (1) ion exchange using Q Sepharose Fast Flow from Pharmacia; (2) affinity chromatography using Affi-Gel Blue from Biorad; and (3) sizing using Sephadex G-100 from Pharmacia. Assays contained 2% DMSO, 50 mM tris pH 7.6, 1 mM EDTA, a compound at the indicated concentrations, approximately 1 μM substrate, and 50-100 nM protease. For Ki determinations, the compound and the enzyme were preincubated for 10 minutes at 30° C. prior to addition of the substrate (substrate start). The kobs/I values were obtained from reactions initiated by addition of enzyme rather than substrate. RVP activity is measured in the fluorescence resonance energy transfer assay. The substrate was (N-terminal) DABCYL-(Gly-Arg-Ala-Val-Phe-Gln-Gly-Pro-Val-Gly)-EDANS. In the uncleaved peptide, the EDANS fluorescence was quenched by the proximal DABCYL moiety. When the peptide was cleaved, the quenching was relieved, and activity was measured as an increase in fluorescence signal.
# In the above table, all data is for RVP serotype-14 unless otherwise noted in parentheses. All strains of human rhinovirus (HRV) were purchased from American Type Culture Collection (ATCC), except for serotype 14, which was produced from the infectious cDNA clone constructed and supplied to us by Dr. Roland Rueckert at the Institute for Molecular Virology, University of Wisconsin, Madison, Wis. The column designated INHIB represents the percent inhibition, with the concentration of the compound in μM indicated in parentheses, unless Ki was assigned as designated by (Ki), at 10 minute preincubation with 50 nM RVP prior to addition of substrate was used. The data in the column designated kobs/I was measured from progress curves in enzyme start experiments.
# [3] = tested on: HRV-14; test: Antirhinoviral HI-HeLa Cell Culture Assay (cell protection, XTT), HRV-14; assay type: cell-based, human rhinovirus; settings: for TI: CC50/EC50, HRV serotype-14, 2880 min; for EC50: Rhinovirus B, HRV14, 48 h, HRV serotype-14 infected HI-HeLa cells, XTT, two days
# Procedure: In the Cell Protection Assay, the ability of compounds to protect cells against HRV infection was measured by the XTT dye reduction method. This method is described in O. S. Weislow, R. Kiser, D. L. Fine, J. Bader, R. H. Shoemaker, and M. R. Boyd, J. Natl. Cancer Inst. 1989, 81, 577-586, which document is entirely incorporated herein by reference.
# as §1, §2
# The compounds were tested against control compounds WIN 51711, WIN 52084, and WIN 54954, all obtained from Sterling-Winthrop Pharmaceuticals, and control compound Pirodavir, obtained from Janssen Pharmaceuticals. Antiviral data obtained for the test compounds are shown in Table 2 where all data are for HRV serotype-14 unless otherwise noted in parentheses.
# T1 sequence (P03303 1538-1719): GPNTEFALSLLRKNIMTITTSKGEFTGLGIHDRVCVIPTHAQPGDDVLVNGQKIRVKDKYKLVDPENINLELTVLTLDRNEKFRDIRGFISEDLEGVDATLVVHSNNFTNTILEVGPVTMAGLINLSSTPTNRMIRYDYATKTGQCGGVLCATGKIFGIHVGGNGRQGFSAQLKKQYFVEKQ
SMILES,CC50 at 48 h [1] [µM],Ki ([2]; RVP serotype-14) [µM],kinact/KI [2] [M⁻¹ s⁻¹],TI [3],EC50 [3] [µM],"inhibition at 10 µM ([2]; RVP serotype-14, 10 μM compound, 10 minute preincubation with 50 nM RVP, read-out: INHIB (percent inhibition)) [%]"
"CCOC(=O)/C=C/[C@H](CCC(N)=O)NC(=O)C1CN(Cc2ccccc2)CCN1C(=O)[C@H](CC(C)C)NC(=O)OCc1ccccc1 (mixture of isomers) [Compound 28, Ethyl-3-(CBZ-L-Leu-DL-(4-Benzyl)-Pipz-L-Gln]-E-Propenoate]",125,50,116,18,6.9,
"CCOC(=O)/C=C/[C@H](CCC(N)=O)NC(=O)[C@@H]1[C@@H](c2ccccc2)CCN1C(=O)[C@H](CC(C)C)NC(=O)OCc1ccccc1 [Compound 18, Ethyl-3-[CBZ-L-Leu-L-(3R-Phenyl)-Pro-L-Gln]-E-Propenoate]",126,7,423,25,5,
"CCSC(=O)N[C@H](C(=O)N(C)[C@@H](Cc1ccccc1)C(=O)N[C@H](/C=C1\CCOC1=O)CCC(N)=O)C(C)C [Compound 12, 2-(Ethylthiocarbonyl-L-Val-L-N-Me-Phe-L-Gln)-E-(α-Vinyl-γ-Butyrolactone)]",> 320,,5070,> 76,4.2,
"CCOC(=O)/C=C/[C@H](CCC(N)=O)NC(=O)[C@H](Cc1ccccc1)N(C)C(=O)[C@H](CC(C)C)NC(=O)SCC [Compound 11, Ethyl-3-(Ethylthiocarbonyl-L-Leu-L-N-Me-Phe-L-Gln)-E-Propenoate]",> 320,,12000,> 603,0.53,
CCCOC(=O)/C=C/[C@H](CCC(N)=O)NC(=O)[C@H](Cc1ccccc1)N(C)C(=O)[C@H](CC(C)C)NC(=O)SC1CCCC1 [Compound 57],50,,13500,89,0.56,
CCOC(=O)/C(C)=C/[C@H](CCC(N)=O)NC(=O)[C@H](Cc1ccccc1)N(C)C(=O)[C@H](CSc1ccccc1)NC(=O)SC1CCCC1 [Compound 47],18,,6500,14,1.3,
"CC(C)C[C@H](NC(=O)OCc1ccccc1)C(=O)N1CCCC[C@H]1C(=O)N[C@H](/C=C/C(=O)N1CCCCO1)CCC(N)=O [Compound 26, 1-[1',2'-Oxazin-2'-yl]-3-(CBZ-L-Leu-L-Pip-L-Gln)-E-Propenone]",> 320,34,875,> 5,56,
"CCOC(=O)/C=C/[C@H](CCC(N)=O)NC(=O)[C@H](Cc1ccccc1)N(C)C(=O)[C@H](CC(C)C)NC(=O)SC1CCCC1 [Compound 5, Ethyl-3-(Cyclopentylthiocarbonyl-L-Leu-L-N-Me-Phe-L-Gln)-E-Propenoate]",51.4,,17300,214,0.24,
CCOC(=O)/C(C)=C/[C@H](CCC(N)=O)NC(=O)[C@H](Cc1ccccc1)N(C)C(=O)[C@H](CC(C)C)NC(=O)SCC1CCCCC1 [Compound 41],18,,2350,9,2,
"CCSC(=O)N[C@@H](CC(C)C)C(=O)N(C)[C@@H](Cc1ccccc1)C(=O)N[C@H](/C=C1\CCOC1=O)CCC(N)=O [Compound 8, 2-(Ethylthiocarbonyl-L-Leu-L-N-Me-Phe-L-Gln)-E-(α-Vinyl-γ-Butyrolactone)]",> 320,,6880,> 32,10,
CCOC(=O)/C=C/C(CCC(N)=O)NC(=O)[C@H](Cc1ccccc1)N1CC[C@H](NC(=O)OCc2ccccc2)C1=O (stereo partly shown) [Compound 53],> 100,,242,> 22,4.5,
CCOC(=O)/C=C/C(CCC(N)=O)NC(=O)[C@H](Cc1ccccc1)N1CC[C@@H](NC(=O)SC2CCCCC2)C1=O (stereo partly shown) [Compound 54],> 100,,,> 6,17.8,55
CCOC(=O)/C(C)=C/[C@H](CCC(N)=O)NC(=O)[C@H](Cc1ccccc1)N(C)C(=O)[C@H](CC(C)C)NC(=O)SCC(C)C [Compound 45],56.2,,2300,32,1.78,
